Measurements: patent US20250011332A1, “PYRAZOLO FUSED RING COMPOUND AND USE THEREOF” (SOTER BIOPHARMA PTE. LTD., priority 2021, published 2025)

What was measured:
JAK1(h) = JAK1(h) (Homo sapiens (Human), UniProt P23458); test: JAK1 kinase activity test in vitro ([γ-33P]-ATP, Eurofins); format: biochemical
Experimental: (§1) Recombinant human JAK1, JAK2, JAK3 and Tyk2 […], main instruments and reagents are all provided by the British company Eurofins
(§2) JAK2, JAK3 and TYK2 dilution: 20 mM 3-(N-morpholine)propanesulfonic acid (MOPS), 1 mM EDTA, 0.01% Brij-35.5% glycerol, 0.1% β-mercaptoethanol, 1 mg/mL BSA; JAK1 dilution: 20 mM TRIS, 0.2 mM EDTA, 0.1% β-mercaptoethanol, 0.01% Brij-35.5% glycerol. All compounds were prepared as 100% DMSO solutions and brought to 50 times the final assay concentration. The test compound was subjected to 3-fold serial concentration dilution with a final concentration from 10 μM to 0.001 μM of a total of 9 concentrations. The content of DMSO in the detection reaction was 2%. A working stock solution of this compound was added to the assay well as the first component of the reaction, and then the remaining components were added according to the protocol detailed in the following determination.
JAK1(h) was incubated with 20 mM Tris/HCl pH 7.5, 0.2 mM EDTA, 500 μM MGEEPLYWSFPAKKK (SEQ ID NO: 1), 10 mM magnesium acetate and [γ-^33P]-ATP (activity and concentration were determined as required). The reaction was started by adding the Mg/ATP mixture, and after incubation at room temperature for 40 min, the reaction was terminated by adding 0.5% phosphoric acid. Then 10 μL of the reaction product was spotted on a P30 filter pad which was washed three times with 0.425% phosphoric acid and once with methanol within 4 min, dried, and subjected to scintillation counting.
(§3) IC50 results were analyzed by XLFIT5 (205 formula) of IDBS Company.

TYK2(h) = TYK2(h) (Homo sapiens (Human), UniProt P29597); test: TYK2 kinase activity test in vitro ([γ-33P]-ATP, Eurofins); format: biochemical
TYK2(h), sequence (P29597 whole entry): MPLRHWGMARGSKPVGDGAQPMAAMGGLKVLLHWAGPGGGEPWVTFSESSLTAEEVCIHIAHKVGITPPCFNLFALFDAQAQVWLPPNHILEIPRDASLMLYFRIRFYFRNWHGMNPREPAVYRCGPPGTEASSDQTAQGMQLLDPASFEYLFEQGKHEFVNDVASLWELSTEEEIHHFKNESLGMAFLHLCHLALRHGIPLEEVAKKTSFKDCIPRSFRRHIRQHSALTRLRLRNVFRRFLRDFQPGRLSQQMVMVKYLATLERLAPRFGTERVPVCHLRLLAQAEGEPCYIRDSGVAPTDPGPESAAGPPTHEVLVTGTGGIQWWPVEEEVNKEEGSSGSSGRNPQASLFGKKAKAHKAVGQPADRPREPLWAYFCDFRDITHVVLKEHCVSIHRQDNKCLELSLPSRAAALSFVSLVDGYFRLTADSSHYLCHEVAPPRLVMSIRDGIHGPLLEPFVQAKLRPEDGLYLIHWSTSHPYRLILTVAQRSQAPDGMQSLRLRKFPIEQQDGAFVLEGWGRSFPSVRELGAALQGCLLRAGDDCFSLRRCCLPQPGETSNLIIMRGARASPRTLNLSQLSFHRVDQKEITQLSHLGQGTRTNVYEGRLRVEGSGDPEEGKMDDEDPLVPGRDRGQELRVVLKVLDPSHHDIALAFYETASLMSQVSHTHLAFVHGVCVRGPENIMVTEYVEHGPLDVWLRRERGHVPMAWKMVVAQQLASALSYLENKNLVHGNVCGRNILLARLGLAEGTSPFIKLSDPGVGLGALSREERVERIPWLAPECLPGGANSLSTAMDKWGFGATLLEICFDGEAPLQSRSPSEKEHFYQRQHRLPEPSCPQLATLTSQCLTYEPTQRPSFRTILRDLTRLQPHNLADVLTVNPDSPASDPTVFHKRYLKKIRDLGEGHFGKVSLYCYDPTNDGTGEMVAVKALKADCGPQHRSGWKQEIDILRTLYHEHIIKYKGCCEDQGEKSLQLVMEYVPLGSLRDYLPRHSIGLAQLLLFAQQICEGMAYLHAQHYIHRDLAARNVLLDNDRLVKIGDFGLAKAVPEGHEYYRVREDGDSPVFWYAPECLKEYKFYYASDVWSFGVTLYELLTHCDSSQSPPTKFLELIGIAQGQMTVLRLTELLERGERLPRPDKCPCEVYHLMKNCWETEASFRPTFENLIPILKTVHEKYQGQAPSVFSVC
Experimental: as §1, §2
(§4) TYK2(h) was incubated with 8 mM MOPS pH 7.0, 0.2 mM EDTA, 250 μM GGMEDIYFEFMGGKKK (SEQ ID NO: 4), 10 mM magnesium acetate, and [γ-^33P]-ATP (activity and concentration were determined as required). The reaction was started by adding the Mg/ATP mixture, and after incubation at room temperature for 40 min, the reaction was terminated by adding 0.5% phosphoric acid. Then 10 μL of the reaction product was spotted on a P30 filter pad which was washed three times with 0.425% phosphoric acid and once with methanol within 4 min, dried, and subjected to scintillation counting.
as §3

JAK3(h) = JAK3(h) (Homo sapiens (Human), UniProt P52333); test: JAK3 kinase activity test in vitro ([γ-33P]-ATP, Eurofins); format: biochemical
JAK3(h), sequence (P52333 whole entry): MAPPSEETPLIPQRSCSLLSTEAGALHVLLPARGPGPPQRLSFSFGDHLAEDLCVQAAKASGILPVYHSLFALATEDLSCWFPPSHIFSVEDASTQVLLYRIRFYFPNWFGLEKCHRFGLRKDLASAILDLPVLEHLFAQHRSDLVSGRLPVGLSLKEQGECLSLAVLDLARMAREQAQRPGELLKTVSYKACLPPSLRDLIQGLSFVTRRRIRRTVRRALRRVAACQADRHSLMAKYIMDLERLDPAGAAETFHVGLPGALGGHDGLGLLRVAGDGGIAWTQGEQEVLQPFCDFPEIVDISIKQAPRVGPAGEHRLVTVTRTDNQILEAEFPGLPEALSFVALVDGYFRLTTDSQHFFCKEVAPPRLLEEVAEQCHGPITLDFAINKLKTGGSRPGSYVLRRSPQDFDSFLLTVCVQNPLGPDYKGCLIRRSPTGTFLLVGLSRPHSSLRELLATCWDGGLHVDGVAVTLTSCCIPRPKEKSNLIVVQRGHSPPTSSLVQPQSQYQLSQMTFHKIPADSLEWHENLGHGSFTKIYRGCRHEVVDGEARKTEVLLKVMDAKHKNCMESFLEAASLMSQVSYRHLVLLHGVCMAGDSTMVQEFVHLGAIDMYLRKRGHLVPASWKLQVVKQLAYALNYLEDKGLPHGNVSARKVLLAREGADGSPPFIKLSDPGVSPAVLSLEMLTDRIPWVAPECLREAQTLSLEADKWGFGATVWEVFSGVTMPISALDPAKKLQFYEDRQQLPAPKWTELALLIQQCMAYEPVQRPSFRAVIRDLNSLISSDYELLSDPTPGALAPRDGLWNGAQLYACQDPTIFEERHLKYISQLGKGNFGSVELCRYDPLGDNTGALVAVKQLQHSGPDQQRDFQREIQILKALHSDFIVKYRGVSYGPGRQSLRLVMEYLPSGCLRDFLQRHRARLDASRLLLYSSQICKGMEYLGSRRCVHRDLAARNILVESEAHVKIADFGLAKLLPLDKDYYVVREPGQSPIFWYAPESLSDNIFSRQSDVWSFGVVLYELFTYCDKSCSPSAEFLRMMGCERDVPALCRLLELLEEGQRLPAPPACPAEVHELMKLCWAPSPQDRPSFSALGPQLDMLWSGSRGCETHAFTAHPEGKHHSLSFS
Experimental: as §1, §2
as §4, with “JAK3(h)” for “TYK2(h)”, “500” for “250”, “GGEEEEYFELVKKKK” for “GGMEDIYFEFMGGKKK”, “3),” for “4),”
as §3

JAK2(h) = JAK2(h) (Homo sapiens (Human), UniProt O60674); test: JAK2 kinase activity test in vitro ([γ-33P]-ATP, Eurofins); format: biochemical
JAK2(h), sequence (O60674 whole entry): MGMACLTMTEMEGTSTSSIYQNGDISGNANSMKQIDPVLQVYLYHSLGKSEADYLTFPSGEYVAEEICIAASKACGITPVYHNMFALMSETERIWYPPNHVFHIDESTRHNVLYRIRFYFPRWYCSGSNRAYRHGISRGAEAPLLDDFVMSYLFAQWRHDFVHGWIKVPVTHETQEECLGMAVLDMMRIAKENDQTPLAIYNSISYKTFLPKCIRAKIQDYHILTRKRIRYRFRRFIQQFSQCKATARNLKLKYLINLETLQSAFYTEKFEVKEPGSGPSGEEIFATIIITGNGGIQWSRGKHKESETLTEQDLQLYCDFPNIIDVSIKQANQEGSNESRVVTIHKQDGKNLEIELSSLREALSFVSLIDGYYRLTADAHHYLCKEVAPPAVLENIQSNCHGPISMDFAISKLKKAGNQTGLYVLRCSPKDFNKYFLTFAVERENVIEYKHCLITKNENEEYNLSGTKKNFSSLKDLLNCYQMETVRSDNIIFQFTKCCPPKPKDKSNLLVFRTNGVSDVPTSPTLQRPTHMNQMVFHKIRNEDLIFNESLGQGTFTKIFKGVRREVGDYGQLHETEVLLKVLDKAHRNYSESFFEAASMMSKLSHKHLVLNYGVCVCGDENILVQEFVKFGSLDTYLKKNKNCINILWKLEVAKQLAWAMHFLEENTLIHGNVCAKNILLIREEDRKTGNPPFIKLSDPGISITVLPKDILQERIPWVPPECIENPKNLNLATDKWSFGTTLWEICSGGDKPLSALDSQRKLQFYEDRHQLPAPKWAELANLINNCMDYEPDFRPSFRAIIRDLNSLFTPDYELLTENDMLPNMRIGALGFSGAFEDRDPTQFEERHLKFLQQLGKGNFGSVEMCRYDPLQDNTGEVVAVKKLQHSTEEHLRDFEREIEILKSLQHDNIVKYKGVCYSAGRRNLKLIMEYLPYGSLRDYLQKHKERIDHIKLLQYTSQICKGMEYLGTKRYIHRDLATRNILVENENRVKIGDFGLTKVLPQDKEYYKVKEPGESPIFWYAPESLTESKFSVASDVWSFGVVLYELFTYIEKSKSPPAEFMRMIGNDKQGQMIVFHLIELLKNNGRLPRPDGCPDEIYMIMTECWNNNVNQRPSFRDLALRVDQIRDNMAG
Experimental: as §1, §2
as §4, with “JAK2(h)” for “TYK2(h)”, “100” for “250”, “GGMEDIYFEFMGGKKK” left out, “2),” for “4),”
as §3

[1] = test system: IL-23 induced psoriasis-like skin lesions in mice; test: In vivo drug efficacy test in mouse psoriasis model (IL-23 induced auricular epidermal dysplasia); design: species or system C57BL/6 mice; Ear comprehensive score: scale not given here; conditions: for Ear weight: end of experiment (Day 10), 8 mm punch
Text: Purpose: The purpose of this experiment is to evaluate the preventive and therapeutic effect of the test substance on IL-23 induced psoriasis-like skin lesions in mice through the psoriasis-like skin lesions model induced by intradermal injection of IL-23 into the mouse auricle.
Method: After the adaptation period of experimental animals, 50 mice were divided into 5 groups according to the Excel completely random grouping method, with 10 mice in each group, as follows: vehicle (0.5% MC & 0.5% Tween 80) control group, modeling group, compound 1 (10, 20, 50 mg/kg) group. Except for the vehicle control group, the animals in the other groups were intradermally injected with IL-23 (3 μg/10 μL/mouse/day, QD) in their right ears for 8 consecutive days (D1-D8). The animals in the control group were intradermally injected with an equal volume of physiological saline solution (10 μL/mouse/day, QD) in the right ear for 8 consecutive days (D1-D8). For the modeling group, the vehicle and test drug were administered orally at the same time, twice a day (Bid), with an interval of 6 h, for 8 consecutive days (D1-D8). During the dosing period, the animal body weight was monitored every two days. On D1, D3, D5, D7 (all before IL-23 injection), and D9, the thickness of the mouse right ear was measured and the auricle appearance was observed and scored. At the end of the experiment (Day 10), the ear on the side where the model was created was taken, and the ear was punched along the edge of the auricle with an 8 mm punch to obtain a piece of ear which was weighed. The piece of ear from the right ear was fixed with formalin and then subjected to histopathological examination (H&E) staining.

[2] = Pharmacokinetic (PK) test in mice; format: in vivo; conditions: mouse, plasma, male balb/c mice, intravenous 1 mg/kg, gavage 3 mg/kg
Experimental: The clear solution obtained after dissolving the test compound was administered to male mice (balb/c) via tail vein injection and gavage respectively. After administration of the test compound, blood samples were collected from mandibular veins for the intravenous injection group (1 mg/kg) at 0.083, 0.25, 0.5, 1, 2, 4, 8 and 24 h and for the gavage group (3 mg/kg) was at 0.25, 0.5, 1, 2, 4, 6, 8 and 24 h, respectively, and centrifuged to obtain plasma. The LC-MS/MS method was used to determine the blood drug concentration, and the WinNonlin™ Version 6.3 pharmacokinetic software was used to calculate the relevant pharmacokinetic parameters by the non-compartmental model linear logarithmic trapezoidal method.

[3] = 10 mg/kg oral gavage Bid, day 1
[4] = 10 mg/kg oral gavage Bid, day 3
[5] = 10 mg/kg oral gavage Bid, day 5
[6] = 10 mg/kg oral gavage Bid, day 7
[7] = 10 mg/kg oral gavage Bid, day 9
[8] = 20 mg/kg oral gavage Bid, day 1
[9] = 20 mg/kg oral gavage Bid, day 3
[10] = 20 mg/kg oral gavage Bid, day 5
[11] = 20 mg/kg oral gavage Bid, day 7
[12] = 20 mg/kg oral gavage Bid, day 9
[13] = 50 mg/kg oral gavage Bid, day 1
[14] = 50 mg/kg oral gavage Bid, day 3
[15] = 50 mg/kg oral gavage Bid, day 5
[16] = 50 mg/kg oral gavage Bid, day 7
[17] = 50 mg/kg oral gavage Bid, day 9

JAK1(h), sequence (P23458 whole entry): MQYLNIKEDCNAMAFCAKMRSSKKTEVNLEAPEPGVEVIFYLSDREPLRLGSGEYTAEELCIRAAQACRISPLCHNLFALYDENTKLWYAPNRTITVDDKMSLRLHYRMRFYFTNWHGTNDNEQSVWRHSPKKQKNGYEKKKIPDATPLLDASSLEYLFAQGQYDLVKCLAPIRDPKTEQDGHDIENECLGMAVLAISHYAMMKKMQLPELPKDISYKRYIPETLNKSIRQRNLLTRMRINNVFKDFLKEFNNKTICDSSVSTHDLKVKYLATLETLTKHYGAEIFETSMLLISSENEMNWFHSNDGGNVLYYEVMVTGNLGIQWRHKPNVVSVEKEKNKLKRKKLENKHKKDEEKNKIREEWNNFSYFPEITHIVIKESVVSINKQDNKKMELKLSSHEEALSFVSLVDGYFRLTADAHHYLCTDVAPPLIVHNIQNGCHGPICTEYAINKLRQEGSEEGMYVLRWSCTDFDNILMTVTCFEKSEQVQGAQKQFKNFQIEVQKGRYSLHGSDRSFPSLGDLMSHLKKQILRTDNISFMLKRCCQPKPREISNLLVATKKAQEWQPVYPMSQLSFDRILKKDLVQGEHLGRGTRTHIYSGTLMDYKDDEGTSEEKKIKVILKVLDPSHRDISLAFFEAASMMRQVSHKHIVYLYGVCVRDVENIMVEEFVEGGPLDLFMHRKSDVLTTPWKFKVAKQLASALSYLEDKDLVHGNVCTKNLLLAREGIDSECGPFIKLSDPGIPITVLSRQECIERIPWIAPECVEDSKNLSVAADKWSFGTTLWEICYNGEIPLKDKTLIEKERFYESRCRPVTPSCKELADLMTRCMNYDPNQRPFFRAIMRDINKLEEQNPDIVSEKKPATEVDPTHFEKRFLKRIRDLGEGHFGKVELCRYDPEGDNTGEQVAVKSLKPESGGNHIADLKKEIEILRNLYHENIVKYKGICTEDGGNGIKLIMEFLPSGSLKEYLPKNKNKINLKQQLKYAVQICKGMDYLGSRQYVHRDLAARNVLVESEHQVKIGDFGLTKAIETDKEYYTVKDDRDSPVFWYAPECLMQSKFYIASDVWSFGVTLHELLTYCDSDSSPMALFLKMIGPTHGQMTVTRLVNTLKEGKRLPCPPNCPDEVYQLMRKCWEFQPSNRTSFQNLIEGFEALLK

SMILES: Cn1cc(-c2cc(-c3cnn([C@]4(CC#N)CC5(C[C@H](C#N)C5)C4)c3)c3ccnn3c2)cn1 (some centres unmarked) [Compound 16]
- IC50 (JAK1(h)): 42 nM
- IC50 (TYK2(h)): 2 nM
- IC50 (JAK3(h)): 67 nM
- IC50 (JAK2(h)): 6 nM

SMILES: Cn1ccc(-c2cn3nccc3c(-c3cnn(C4(CC#N)CC5(CCN(C#N)CC5)C4)c3)n2)n1 [Compound 9]
- IC50 (JAK1(h)): 128 nM
- IC50 (TYK2(h)): 2.81 nM
- IC50 (JAK3(h)): 209 nM
- IC50 (JAK2(h)): 5.16 nM

SMILES: Cn1ccc(-c2cn3nccc3c(-c3cnn([C@]4(CC#N)CC5(C[C@H](C#N)C5)C4)c3)n2)n1 (some centres unmarked) [Compound 4]
- IC50 (JAK1(h)): 606 nM
- IC50 (TYK2(h)): 20 nM
- IC50 (JAK3(h)): ≥ 10000 nM
- IC50 (JAK2(h)): 82 nM

SMILES: Cn1ccc(-c2cn3nccc3c(-c3cnn(C4(CC#N)CC5(CN(CC#N)C5)C4)c3)n2)n1 [Compound 6]
- IC50 (JAK1(h)): 3130 nM
- IC50 (TYK2(h)): 177 nM

SMILES: Cn1cc(-c2cn3nccc3c(-c3cnn([C@]4(CC#N)CC5(C[C@H](C#N)C5)C4)c3)n2)cn1 (some centres unmarked) [Compound 1]
- Ear comprehensive score [1, 3]: 0.00 ± 0.00
- Ear thickness (mm) [1, 3]: 0.189 ± 0.006 mm
- Weight [1, 3]: 19.77 ± 0.59 g
- Ear comprehensive score [1, 4]: 0.00 ± 0.00
- Ear thickness (mm) [1, 4]: 0.287 ± 0.018 mm
- Weight [1, 4]: 19.69 ± 0.57 g
- Ear comprehensive score [1, 5]: 0.60 ± 0.52
- Ear thickness (mm) [1, 5]: 0.311 ± 0.013 mm
- Weight [1, 5]: 20.02 ± 0.77 g
- Ear comprehensive score [1, 6]: 1.70 ± 1.06
- Ear thickness (mm) [1, 6]: 0.373 ± 0.030 mm
- Weight [1, 6]: 19.69 ± 0.63 g
- Ear comprehensive score [1, 7]: 2.60 ± 1.43
- Ear thickness (mm) [1, 7]: 0.430 ± 0.048 mm
- Weight [1, 7]: 20.04 ± 0.72 g
- Ear weight ([1]; 10 mg/kg oral gavage Bid): 19.16 ± 1.56 mg
- Ear comprehensive score [1, 8]: 0.00 ± 0.00
- Ear thickness (mm) [1, 8]: 0.190 ± 0.009 mm
- Weight [1, 8]: 19.77 ± 0.54 g
- Ear comprehensive score [1, 9]: 0.00 ± 0.00
- Ear thickness (mm) [1, 9]: 0.289 ± 0.028 mm
- Weight [1, 9]: 19.85 ± 0.78 g
- Ear comprehensive score [1, 10]: 0.60 ± 0.70
- Ear thickness (mm) [1, 10]: 0.306 ± 0.018 mm
- Weight [1, 10]: 20.13 ± 0.78 g
- Ear comprehensive score [1, 11]: 1.40 ± 0.52
- Ear thickness (mm) [1, 11]: 0.350 ± 0.025 mm
- Weight [1, 11]: 19.80 ± 0.92 g
- Ear comprehensive score [1, 12]: 1.50 ± 0.71
- Ear thickness (mm) [1, 12]: 0.381 ± 0.032 mm
- Weight [1, 12]: 20.27 ± 0.90 g
- Ear weight ([1]; 20 mg/kg oral gavage Bid): 18.76 ± 1.62 mg
- Ear comprehensive score [1, 13]: 0.00 ± 0.00
- Ear thickness (mm) [1, 13]: 0.193 ± 0.006 mm
- Weight [1, 13]: 19.78 ± 0.53 g
- Ear comprehensive score [1, 14]: 0.00 ± 0.00
- Ear thickness (mm) [1, 14]: 0.279 ± 0.024 mm
- Weight [1, 14]: 19.85 ± 0.68 g
- Ear comprehensive score [1, 15]: 0.10 ± 0.32
- Ear thickness (mm) [1, 15]: 0.289 ± 0.025 mm
- Weight [1, 15]: 20.41 ± 0.70 g
- Ear comprehensive score [1, 16]: 1.40 ± 0.70
- Ear thickness (mm) [1, 16]: 0.338 ± 0.023 mm
- Weight [1, 16]: 20.15 ± 0.56 g
- Ear comprehensive score [1, 17]: 1.00 ± 0.47
- Ear thickness (mm) [1, 17]: 0.352 ± 0.032 mm
- Weight [1, 17]: 20.28 ± 0.76 g
- Ear weight ([1]; 50 mg/kg oral gavage Bid): 17.63 ± 1.47 mg
- bioavailability ([2]; oral): 88.7%
- AUC(0-inf) [2]: 7.67 µM·h
- clearance ([2]; read-out: Cl (clearance rate)): 15.6 mL/min/kg
- Cmax ([2]; read-out: Cmax (peak concentration)): 3.04 µM
- half-life ([2]; read-out: T1/2 (half-life) (converted)): 2.39 h
- Vd ([2]; read-out: Vd (distribution volume)): 1.59 L/kg
